In patent US6143719A, “Bradykinin analogs as selective thrombin inhibitors” (The Regents of the University of Michigan, priority 1996, dated 2000):
pIC50: −log10 of the molar value. Ends that are not written are not given here.

Test system: human platelets
Assay type: cell-based
Method: The cytoplasmic free Ca^2+ concentration ([Ca^2+ ]i) was measured using the fluorescent Ca^2 + indicator fura-2 (Molecular Probes, Inc., Eugene, Oreg.). Gel filtered platelets in Hepes-Tyrode's buffer were loaded with fura-2 by incubation at 37° C. with 1 μM fura-2/acetoxymethyl ester for 45 min according to the method of Rasmussen et al., J. Biol. Chem. 268, 14322 (1993). The labeled platelets were then re-gel filtered to remove any excess probe. Aliquots of the labeled platelet suspension were transferred into a quartz cuvette with a magnetic stirrer, which was then placed in a thermostatically controlled chamber at 37° C. in a fluorescence spectrophotometer (Dual Wave Length Shimazdu SP5000 Spectrofluorometer, Shimazdu USA, Pittsburgh, Pa.). Reagents were directly added to the cuvette. The excitation wave lengths varied between 340 and 380 nm. The fluorescence was measured by recording emitted light at 510 nm as reported by Fisher et al, Mol. Pharm. 35, 195 (1989). The minimum emission was determined on a 20 mM digitonin, 10 mM EGTA solubilized platelet sample; maximum emission was determined on the same sample with 10 mM Ca^2+ added. The intraplatelet free Ca^2+ concentration was calculated by the method of Grykiewicz et al., J. Biol. Chem. 260, 3440 (1985). The ratio of the fluorescence readings was calculated as R=340/380 nm and processed according to the equation [Ca^2+ ]i =KD ((R-Rmin)/Rmax -R))(Sf2 /Sb2) to determine the intraplatelet free Ca^2+ concentration. The KD for fura-2 was assumed to be 224 nM. Rmax and Rmin are the maximum and minimum fluorescence ratios measured at the end of the experiment, respectively; Sf2 and Sb2 are the fluorescence values at 380 nm in the absence and presence of saturating [Ca^2+ ], respectively.

In the case of RPPGFSPFR [BK, bradykinin], the “inhibition of α-thrombin-induced calcium mobilization” value (FIG. 2, concentration not given) was “block” and the pIC50 (gel filtered platelets, read-out: IC50, α-thrombin-induced Ca2+ mobilization) was 3.64.
